Experimental data: ChEMBL document CHEMBL5303711, “ECBD screening data for assay EOS300108” (2023)
Structures can show the parent of a compound that is named as a salt. Activity calls are given as the source filed them. The rule behind the calls is not given here.

Assay: Cytotoxicity activity against human HepG2 cells assessed by CellTiter-Glo luminescent cell viability assay.
Format: toxicity, cell-based
Parameters: assay stage confirmatory assay, source tissue liver
Conditions: HepG2 cells, read-out: IC50 relative

| Compound | CC50 |
| --- | --- |
| CN(c1ccccc1CNc1nc(Nc2ccc3c(c2)CC(=O)N3)ncc1C(F)(F)F)S(C)(=O)=O | 1 µM (active) |
| Cc1ccc(C)c(N2CCN(CCCNC(=O)C3CCN(c4ccc5nnc(C)n5n4)CC3)CC2)c1 | 8.7 µM (active) |
| Cc1nc2ccccc2nc1CSCCCS(=O)(=O)C(C)C | 0.9 µM (active) |
| Oc1cc(-c2nc(-c3ccccc3)[nH]c2-c2ccncc2)ccc1Cl | 0.6 µM (active) |
| CC(C)(C)NS(=O)(=O)c1ccc(C(=O)Nc2ccc(Oc3cccnc3)nc2)o1 | 11.8 µM (inactive) |
| COc1ccc2c(O[C@@H]3C[C@H]4C(=O)N[C@]5(C(=O)NS(=O)(=O)C6CC6)C[C@H]5/C=C\CCCCN(C)C(=O)[C@@H]4C3)cc(-c3nc(C(C)C)cs3)nc2c1C | 8.6 µM (active) |
| c1ccc(-c2cnn3c(-c4ccco4)ccnc23)cc1 | 0.5 µM (active) |
| CN(C)CC1(O)CCCN(Cc2cc3ccccc3n2C)C1 (stereo unspecified) | 11.8 µM (active) |
| COc1ncccc1-c1csc(-c2ccoc2)n1 | 1 µM (active) |
| COc1ccc(C(=O)Nc2ccncc2)cc1S(=O)(=O)N(C)Cc1ccccc1 | 10.3 µM (active) |
| CCOCCCNC(=O)c1nnn(-c2ccc3ncccc3c2)c1C | 3.1 µM (active) |
| CCN1CCN(CCCNC(=O)c2cc3c(=O)n(C)c4ccccc4c3s2)CC1 | 4.1 µM (active) |
| CN1CCCN(C(=O)Nc2ccc3c4c(cccc24)CC3)CC1 | 9.4 µM (active) |
| Cc1cc(-c2ccc(O)cc2O)nc2cc3c(cc12)OCO3 | 26.3 µM (inactive) |
| CCN(C)C[C@H]1CCN(Cc2ccc(OCc3ccccc3F)nc2)C1 | 6.7 µM (active) |
| CC(C)Cn1ncc2cc(C(=O)Nc3nc4ccccc4[nH]3)cnc21 | 15.5 µM (inactive) |
| C[C@@H]1COCCN1c1cc(=O)n2c(n1)N(Cc1cncc(Cl)c1)[C@H](C(F)(F)F)CC2 | 14.5 µM (inactive) |
| COc1cccc(S(=O)(=O)N2CCC3(CC2)CC(CCOc2ccncc2)CCO3)c1 (stereo unspecified) | 13.2 µM (active) |
| Cc1ccc2nc(NCCN)c3ncc(C)n3c2c1 | 1.9 µM (active) |
| COc1ccccc1C(=O)Nc1ccccn1 | 8.4 µM (inactive) |
| CCOc1ccc(C(=O)Nc2nc3ccc(S(=O)(=O)N(C)C)cc3s2)cc1 | 19.3 µM (inactive) |
| CC(C)NC(=O)N1CC(Oc2ccc(-c3noc(-c4cccnc4)n3)cc2)C1 | 3.4 µM (active) |
| Cc1ccc(O)c([C@H](CCN(C(C)C)C(C)C)c2ccccc2)c1 [TOLTERODINE TARTRATE] | 14.2 µM (active) |

| Compound | CC50 |
| --- | --- |
| COc1cccc(OCCCN)c1-c1cc(Nc2cnc(C#N)cn2)n[nH]1 | 0.3 µM (active) |
| CC[C@]1(O)C[C@@H]2CN(CCc3c([nH]c4ccccc34)[C@@](C(=O)OC)(c3cc4c(cc3OC)N(C)[C@H]3[C@@](O)(C(=O)OC)[C@H](OC(C)=O)[C@]5(CC)C=CCN6CC[C@]43[C@@H]65)C2)C1 [VINBLASTINE SULFATE] | 4 µM (active) |
| O=S(=O)(Nc1cccc2cccnc12)c1ccc2c(c1)OCCO2 | 10.4 µM (active) |
| CCN(c1ccccc1C)S(=O)(=O)c1cn(C)nn1 | 19.9 µM (inactive) |
| O=[N+]([O-])c1ccc(NN=Cc2sc(N3CCOCC3)nc2-c2ccccc2)c(S(=O)(=O)Nc2ccccc2Cl)c1 | 2.7 µM (active) |
| C[C@H]1CCC/C=C\[C@@H]2C[C@H](O)C[C@H]2[C@H](O)/C=C\C(=O)O1 | < 0.1 µM (active) |
| COc1cc2c(NC3CCN(C(C)C)CC3)nc(N3CCC(F)(F)CC3)nc2cc1OCCCN1CCCC1 | 3.1 µM (active) |
| O=C(c1ccoc1)N1CCCN(Cc2ccc3c(c2)OCO3)c2ccccc21 | 20.4 µM (inactive) |
| N#C/C(=C(/N)Sc1ccc(N)cc1)c1ccccc1C(F)(F)F | 8.6 µM (active) |
| CN1CCC[C@@H]1CCO[C@](C)(c1ccccc1)c1ccc(Cl)cc1 [CLEMASTINE FUMARATE] | 5.4 µM (active) |
| COc1ccc(NS(=O)(=O)c2ccc3onc(C(=O)N4CCCC4)c3c2)cc1 | 7.1 µM (active) |
| CC1CC(C)CN(CCCNC(=O)Cn2nc(-c3ccc(Cl)cc3)ccc2=O)C1 (stereo unspecified) | 14.5 µM (inactive) |
| CCC(=O)Nc1ccc(C(=O)Cn2ncc(Cl)c(Cl)c2=O)cc1 | 3.3 µM (active) |
| CN(C)c1nc(Nc2cccc(O)c2)nc2ccccc12 | 12.7 µM (active) |
| CN(C)C1CCN(C(C)(C)CNCc2cccc(Cl)c2N)CC1 | 12 µM (active) |
| Nc1ccc2c(c1)C(=O)C(=O)c1ccccc1-2 | 4.2 µM (active) |
| CC(C)COCC(O)CN1CCCN(c2ccc(NC(=O)COc3ccc(Cl)cc3)cn2)CC1 (stereo unspecified) | 5.8 µM (active) |
| CC1CCN(CC(O)COc2ccccc2C(C)(C)C)CC1 (stereo unspecified) | 9.6 µM (active) |
| COc1cc(/C=C/C(=O)CC(=O)/C=C/c2ccc(O)cc2)ccc1O | 11.5 µM (active) |
| CCn1c(=O)n(CC)c2cc(N3CCCC3)c(NC(=O)c3cccc(OC)c3)cc21 | 20.2 µM (inactive) |
| CCC(=O)Nc1ccc(Nc2nc(C)cc(N(CC)CC)n2)cc1 | 4.5 µM (active) |
| Cc1ccnc(NC(=O)c2csc(Cl)c2)n1 | 4.8 µM (active) |
| COc1cc2ncnc(-n3nc(-c4ccccn4)nc3N)c2cc1OC | 1.5 µM (active) |

| Compound | CC50 |
| --- | --- |
| CC(=O)c1ccc(S(=O)(=O)Nc2cccc3cccnc23)cc1 | 3.5 µM (active) |
| CCCNC(=O)N1CC(Oc2ccc(-c3noc(-c4cccnc4)n3)cc2)C1 | 6 µM (active) |
| C[n+]1ccc(/C=C/c2c[nH]c3ccccc23)cc1 | 1.2 µM (active) |
| CCN(CC)c1ccc(/C=C/C2=[N+](C)c3ccccc3C2(C)C)cc1 | 1.2 µM (active) |
| Cc1cccc(N2CCN(C(=O)C3CCCN(S(=O)(=O)c4ccc5c(c4)oc(=O)n5C)C3)CC2)c1C (stereo unspecified) | 6.1 µM (active) |
| CC[C@@]1(O)C(=O)OCc2c1cc1n(c2=O)Cc2cc3ccccc3nc2-1 [CAMPTOTHECIN] | 0.2 µM (active) |
| COc1ccc(-c2noc(N3CCC(C(=O)N4CCN(c5ccccc5OC)CC4)CC3)n2)cc1 | 8 µM (active) |
| Cc1ccc(NC(=O)c2cccc(F)c2Cl)cc1O | 0.7 µM (active) |
| CCC[C@H](NCc1csc(N(C)C)n1)c1ncccc1Cl | 11.1 µM (active) |
| O=C(Nc1cccnc1)N1CCN(c2ccc(S(=O)(=O)N3CCOCC3)cn2)CC1 | 2.5 µM (active) |
| COC(=O)C[C@](O)(CCCC(C)(C)O)C(=O)O[C@@H]1C(OC)=C[C@]23CCCN2CCc2cc4c(cc2[C@H]13)OCO4 [OMACETAXINE MEPESUCCINATE] | 0.2 µM (active) |
| CCS(=O)(=O)c1ncc(Cl)c(C(=O)Nc2ccccc2Cl)n1 | 2.5 µM (active) |
| C[C@@H](O[C@H]1OCCN(Cc2n[nH]c(=O)[nH]2)[C@H]1c1ccc(F)cc1)c1cc(C(F)(F)F)cc(C(F)(F)F)c1 [APREPITANT] | 14.8 µM (inactive) |
| CC(C)N1CCC(NC(=O)CN2CCCN(Cc3ccccc3)c3ccccc32)CC1 | 12.4 µM (active) |
| COc1cc2nccc(Oc3ccc(NC(=O)Nc4cc(C)on4)c(Cl)c3)c2cc1OC [TIVOZANIB] | 6.7 µM (active) |
| CC1CCC/C=C\C2CC(O)CC2C(O)/C=C\C(=O)O1 (stereo unspecified) | < 0.1 µM (active) |
| COc1ccc(C(O)CN2CCN(c3cc(C)ccc3C)CC2)cc1OC (stereo unspecified) | 10.2 µM (active) |
| CC(C)=CCC[C@]1(C)C=Cc2c(O)c3c(c(CC=C(C)C)c2O1)O[C@]12C(=C[C@@H]4C[C@H]1C(C)(C)O[C@@]2(C/C=C(/C)C(=O)O)C4=O)C3=O | 0.7 µM (active) |
| CC1(C)CCCN(c2ccnc(N[C@H]3CCCOCC3)n2)C1 | 8 µM (active) |
| N#Cc1ccc(CN2CCN(C(=O)c3ccc(Cn4cccn4)cc3)CC2)cc1 | 3.9 µM (active) |
| O=S1(=O)C[C@H](NC2CCCC2)[C@@H](S(=O)(=O)c2ccc(Cl)cc2)C1 | 12.1 µM (active) |
| CCN1CCS/C1=C\C=C\C1=[N+](CC)CCS1 | 6.3 µM (active) |
| Cc1nc(NC(=O)c2ccc(C)c(Br)c2)n(C)n1 | 11.7 µM (active) |

| Compound | CC50 |
| --- | --- |
| Cc1cccc2cc(C(=O)Nc3ccc(N4CCN(C)CC4)cn3)oc12 | 12.6 µM (active) |
| OCCCNc1cc(-c2ccnc(Nc3cccc(Cl)c3)n2)ccn1 | 1.4 µM (active) |
| CCc1ccc2nc(N3CCC(C(=O)NCCN(CC)CC)CC3)sc2c1 | 3.1 µM (active) |
| Nc1ccc(O)c2ncccc12 | 1.4 µM (active) |
| Fc1ccc(C(CCNC[C@@H]2[C@H]3CNC[C@@H]23)c2ccco2)cc1 (stereo partly specified) | 7.1 µM (active) |
| CCCOc1cc(OCCCCN(C)C)cc(Oc2cc3c(cc2NS(=O)(=O)c2ccc(OC)c(OC)c2)n(C)c(=O)n3C)c1 | 7.8 µM (active) |
| FC(F)(F)c1ccc(/C=C/c2nc(COc3ccc(CCCCn4ccnn4)cc3)co2)cc1 [MUBRITINIB] | 0.3 µM (active) |
| O=C(Nc1nccs1)C1=C(c2ccccc2)S(=O)(=O)CCO1 | 7.7 µM (active) |
| CNC(=O)c1c(N)sc2c1-c1ccccc1C2 | 19.3 µM (inactive) |
| NCCCNc1nc(-c2ccccc2)nc2ccccc12 | 11.9 µM (active) |
| COc1ccc(/C=C\c2cc(OC)c(OC)c(OC)c2)cc1O [COMBRETASTATIN A4] | 1.4 µM (inactive) |
| O=C(Cn1ncc(Cl)c(Cl)c1=O)N1CCC[C@H]1c1cccs1 | 4.2 µM (active) |
| CCCCCCCCCCCCC/C=C/[C@@H](O)[C@@H](N)CO [SPHINGOSINE] | 11.2 µM (active) |
| CCC(C)NC(=O)N1CC(Oc2ccc(-c3noc(C4CC4)n3)cc2)C1 (stereo unspecified) | 3.5 µM (active) |
| CCNC(=O)Nc1ccc(-c2nc3c(c(N4CCOC[C@@H]4C)n2)CCN(c2ncccn2)C3)cc1 | 0.2 µM (active) |
| N#CN=C(NCCCCCCOc1ccc(Cl)cc1)Nc1ccncc1 [CHS-828] | 0.1 µM (active) |
| Cc1ccc(NC(=O)c2nc(S(C)(=O)=O)ncc2Br)cc1 | 2.7 µM (active) |
| CCc1nc(-c2cc(S(=O)(=O)N3CCCC(C(=O)N4CCC(C)CC4)C3)c(C)s2)no1 (stereo unspecified) | 7.9 µM (active) |
| CC(C)c1noc(-c2ccc(OCC(=O)NC(C)(C)C)cc2)n1 | 8.2 µM (active) |
| CCOc1cc(CNCC(C)O)ccc1OCc1ccc(C)cc1 (stereo unspecified) | 9.4 µM (active) |
| COc1cc(N2CCC(N(C)C)CC2)ccc1Nc1ncc(Cl)c(Nc2ccccc2P(C)(C)=O)n1 | 2.6 µM (active) |
| Cc1csc(-c2nnc(Nc3ccc(Oc4ncccc4-c4ccnc(N)n4)cc3)c3ccccc23)c1 [AMG-900] | 25.4 µM (inactive) |
